Experimental data as given in patent publication US5079247A, “N^1 -substituted benz(cd)indol-2-imine compounds as cardiovascular agents” (American Cyanamid Company, priority 1990, dated 1992).

What was measured:
[1] = molecular target: T1, thromboxane synthetase enzyme (Rattus norvegicus, UniProt P49430); test: Thromboxane synthetase enzyme inhibition (TXB2 formation in platelet suspension, RIA); type: cell-based, Okamoto-Aoki spontaneously hypertensive rats (SHR); details: concentration 1 × 10^-4 M; SHR platelet suspension, 10 minutes at 37° C.
T1 construct: The platelets were isolated by centrifuging the PRP for 10 minutes; from tissue; host or cells: washed platelets from arterial blood of Okamoto-Aoki spontaneously hypertensive rats (animals from Taconic Farms)
T1 sequence (P49430 1-533): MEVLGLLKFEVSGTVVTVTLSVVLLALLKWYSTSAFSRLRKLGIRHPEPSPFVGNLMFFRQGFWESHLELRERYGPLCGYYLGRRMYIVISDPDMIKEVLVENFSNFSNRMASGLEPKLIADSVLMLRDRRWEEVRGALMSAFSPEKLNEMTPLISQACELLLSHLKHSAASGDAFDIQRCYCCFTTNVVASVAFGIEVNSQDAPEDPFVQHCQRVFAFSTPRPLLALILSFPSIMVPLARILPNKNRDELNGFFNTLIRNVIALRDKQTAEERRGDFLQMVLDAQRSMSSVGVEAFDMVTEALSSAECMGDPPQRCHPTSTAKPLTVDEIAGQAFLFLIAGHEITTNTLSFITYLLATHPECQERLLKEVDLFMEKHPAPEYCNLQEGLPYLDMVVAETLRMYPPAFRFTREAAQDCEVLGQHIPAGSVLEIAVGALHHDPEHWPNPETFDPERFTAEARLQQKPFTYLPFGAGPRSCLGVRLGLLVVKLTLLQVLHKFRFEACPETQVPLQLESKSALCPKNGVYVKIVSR
Procedure: Under urethan anethesia, […] of arterial blood from Okamoto-Aoki spontaneously hypertensive rats (SHR) (Taconic Farms, Germantown, New York) between 19 and 24 weeks in age was collected in 1 ml of 3.2% sodium citrate in a polystyrene tube. The blood was diluted with 3 ml of cold saline and centrifuged at room temperature for 15 minutes at 460Xg. The platelet rich plasma (PRP) was separated. The platelets were isolated by centrifuging the PRP for 10 minutes at 1060Xg and were washed in 4 ml of cold oxygenated Krebs phosphate buffer, pH 7.4. The chilled platelets, recovered from centrifuging at 800Xg for 10 minutes, were resuspended in oxygenated Krebs phosphate buffer and diluted to contain 4.5-6.0×10^4 platelets/μl. The inhibition of thromboxane (TX) formation was studied by determining the concentration of thromboxane B2 (TXB2), the stable hydrolysis product of TXA2. Assay samples, prepared on ice, contained 200 μl platelet suspension, 50 μl saline, and 50 μl vehicle or drug under study at a concentration of 1×10^-4 M. The samples were incubated for 10 minutes at 37° C. in metabolic shaker. The reaction was terminated by immersing the tubes in an ice bath and adding 50 μl of 0.5M citric acid. The samples were centrifuged for 10 minutes in a refrigerated centrifuge and the supernatants thus obtained were decanted and stored at -20° C. The TXB2 content for each sample was determined by a direct radioimmunoassay (RIA) utilizing a TXB2 specific RIA kit purchased from New England Nuclear, Boston, Massachusetts and expressed as pg TXB2 formed minute^-1 sample^-1, from which the percent inhibition of TXB2 formation was calculated.

[2] = tested on: spontaneously hypertensive rats of the Okamoto strain; test: Hypotensive activity in spontaneously hypertensive rats (method of Chan and Poorvin); type: in vivo, rat; details: by gavage, 100 mg/kg or less, two doses 24 hours apart; MABP at 28 hours after initial dose; average baseline MABP 160±1.5 mm of mercury
Procedure: The novel compounds of the present invention are active hypotensive agents and were tested for hypotensive activity by the method of P. S. Chan and D. Poorvin, Clinical and Experimental Hypertension, 1 (6), 817-830 (1979). Male, 16 week old, spontaneously hypertensive rats of the Okamoto strain, from Taconic Farms, Germantown, New York, having an average mean arterial blood pressure of 160±1.5 mm of mercury, were used in the test. One to 3 rats were used per test compound. […] A second identical dose of the test compound, without sodium chloride loading was given 24 hours later. At 28 hours after the initial dose the mean arterial blood pressure (MABP) was measured. The procedure was repeated in a second and third rat when necessary.

[3] = tested on: CaCl2-induced cardiac arrhythmias, fibrillation and cardiac death in mice; test: Antiarrhythmic/antifibrillatory activity in anesthetized mice, calcium chloride challenge; type: in vivo, mice of the Swiss Webster Strain; details: Mus musculus, iv, 0.25 h; Dose = 10 mg/kg I.V.; calcium chloride 200 mg/kg i.v.; 15 minutes observation; read-out: CaCl2 Mice Surviving / Mice Tested (converted)
Text: (§1) Intravenous administration of high doses of calcium or potassium chloride in animals produces cardiac arrhythmias, cardiac fibrillation and cardiac arrest. Any agent that can prevent these events is considered an antiarrhythmic/antifibrillatory agent. (Meth. and Find Exptl. Clin Pharmacal.2:223-252(1980); Pharmacol Ther. 24:401-433 (1984); Experimental Cardiac and Antiarrhythmic Drugs, L. Szekeres and Gy. J. Dapp, Akademiai Kiado Preso, Budapest, 9-448 (1971)).
(§2) The method employed is as follows: Male mice of the Swiss Webster Strain (Charles River, Wilmington, MA) weighing 25-35 g were anesthetized with ethyl carbamate (urethan) (1.5g/kg body weight i.p.). A 25-gauge needle attached to PE-20 tubing was inserted into a caudal vein for drug administration. The lead II ECG was recorded by needle electrodes placed subcutaneously in the limbs. All data were collected on a Gould Brush recorder. Animals were observed 5 minutes before drug administration. A 5, 15 or 30 minute period following drug administration was allowed before the bolus injection of calcium chloride, 200 mg/ kg i.v. or potassium chloride, 62.5 mg/kg i.v. Control mice received 4 ml/kg of 0.9% sodium chloride i.v. Mice were observed an additional 15 minutes for arrhythmias,fibrillation, survival or death. Any compound at a dose of less than 20 mg/kg i.v. in either test that protects from cardiac death 3 or more mice out of 6 mice, is considered active.

[4] = tested on: KCl-induced cardiac arrhythmias, fibrillation and cardiac death in mice; test: Antiarrhythmic/antifibrillatory activity in anesthetized mice, potassium chloride challenge; type: in vivo, mice of the Swiss Webster Strain; details: Mus musculus, iv, 0.25 h; Dose = 10 mg/kg I.V.; potassium chloride 62.5 mg/kg i.v.; 15 minutes observation; read-out: KCl Mice Surviving / Mice Tested (converted)
Text: as §1, §2

SMILES: c1cc2c3c(cccc3c1)N(CCN1CCOCC1)C2=NCCCn1ccnc1 [Example 8, N-[1-[2-(4-Morpholinyl)ethyl]benz[cd]indol-2(1H)-ylidene-1H-imidazole-1-propanamine, (E)-2-butenedioate (1:2)]
- inhibition at 100 µM [1]: 96%
- Avg. MABP in mm Hg (No. of Rats) [2]: 119 mm Hg
- responders at 10 mg/kg [3]: 0%
- responders at 10 mg/kg [4]: 83.3%

SMILES: c1ccc(CN2C(=NCCCCn3ccnc3)c3cccc4cccc2c34)cc1 [Example 23, N-[1-(Phenylmethyl)benz[cd]indol-2(1H)-ylidene-1H-imidazole-1-butanamine,(E)-2-butenedioate (1:2)]
- inhibition at 100 µM [1]: 100%
- Avg. MABP in mm Hg (No. of Rats) [2]: 124 mm Hg
- responders at 10 mg/kg [3]: 33.3%
- responders at 10 mg/kg [4]: 100%

SMILES: CN1C(=NCCCc2cccnc2)c2cccc3cccc1c23 [Example 26, N-(1 Methylbenz[cd]indol-2(1H) -ylidene)-3-pyridinepropanamine, (E)-2-butenedioate (2:3)]
- inhibition at 100 µM [1]: 93%
- Avg. MABP in mm Hg (No. of Rats) [2]: 114 mm Hg
- responders at 10 mg/kg [3]: 16.7%
- responders at 10 mg/kg [4]: 33.3%

SMILES: CN1C(=NCCCCc2cccnc2)c2cccc3cccc1c23 [Example 27]
- inhibition at 100 µM [1]: 100%
- Avg. MABP in mm Hg (No. of Rats) [2]: 107 mm Hg
- responders at 10 mg/kg [3]: 58.3%
- responders at 10 mg/kg [4]: 50%

SMILES: N#CCCCCN1C(=NCCCCc2cccnc2)c2cccc3cccc1c23 [Example 32, N2-[[4-(3-Pyridinyl)butyl]imino]benz[cd]indole-1(2H)-pentanenitrile, (E)2-butenedioate (4:7)]
- inhibition at 100 µM [1]: 98%
- Avg. MABP in mm Hg (No. of Rats) [2]: 129 mm Hg
- responders at 10 mg/kg [3]: 33.3%
- responders at 10 mg/kg [4]: 83.3%

SMILES: CC(CCn1ccnc1)N=C1c2cccc3cccc(c23)N1C(c1ccccc1)c1ccccc1 (stereo not drawn) [Example 35, N-[1-(Diphenylmethyl)benz[cd]indol-2(1H)-ylidene]alpha-methyl-1H-imidazole-1-propanamine]
- inhibition at 100 µM [1]: 88%
- Avg. MABP in mm Hg (No. of Rats) [2]: 127 mm Hg
- responders at 10 mg/kg [3]: 0%
- responders at 10 mg/kg [4]: 50%
